Measurements reported in patent US6022892A, “Bis-platinum complexes with polyamine ligands as antitumor agents” (Hoffman-La Roche Inc., priority 1998, dated 2000).

Columns and labels:
L1210/CDDP = experiment: cytotoxic effect in vitro on cisplatin resistant subline L1210/CDDP; type: cell-based, murine; conditions: after 72 hours from the drug exposure, resistant line
Protocol: (§1) The compounds of formula (I) were tested for their cytotoxic effect "in vitro" on various tumor cell lines, among which murine leukemia L1210, human ovarian carcinoma A2780 and the respective cisplatin resistant sublines L1210/CDDP and A2780/CDDP.
(§2) a) IC50 (concentration of the drug expressed as ([…] which causes a 50% inhibition of the cell growth) determined after 2 hours from the drug exposure.
b), c) IC50 determined after 72 hours from the drug exposure in the non resistant and in the resistant cell lines, receptively.

A2780 = experiment: cytotoxic effect in vitro on human ovarian carcinoma A2780; type: cell-based; conditions: after 1 hour from the drug exposure
Protocol: as §1, §2
(§3) d), e) IC50 determined after 1 hour from the drug exposure in the non resistant and in the resistant cell lines, receptively.

A2780/CDDP = experiment: cytotoxic effect in vitro on cisplatin resistant subline A2780/CDDP; type: cell-based, human; conditions: after 1 hour from the drug exposure, resistant line
Protocol: as §1, §2, §3

L1210CDDP = experiment: in vivo antitumor test, L1210/CDDP tumor cells inoculated ip in mouse; conditions: ip 24, 120 and 216 hours after tumor inoculation
Protocol: In addition, the compounds of the invention were tested in an "in vivo" test in which L1210 and L1210/CDDP tumor cells are inoculated intraperitoneally (ip) in a mouse and the compound is administered ip 24, 120 and 216 hours after tumor inoculation.
% T/C=[(MST treated)/(MST control)]×100

| Molecule | L1210/CDDP IC50 72h (L1210/CDDP) | A2780 IC50 1h (A2780) | A2780/CDDP IC50 1h (A2780/CDDP) | T/C % (mean survival time treated/control) (L1210CDDP; 6 mg/kg) | T/C % (mean survival time treated/control) (L1210CDDP; 2 mg/kg) |
| --- | --- | --- | --- | --- | --- |
| [Cl-].[Cl-].[Cl-].[NH2][Pt+]([NH2])([Cl])[NH]CCCC[NH2+]CCC[NH][Pt+]([NH2])([NH2])[Cl] [Example 14, [trans-(PtCl(NH3)2)2-(-spermidine]Cl3] | 0.03 µg/mL | < 0.005 µg/mL | 0.13 µg/mL |  |  |
| N.N.[Cl][Pt][Cl] [cisplatin, reference compound] |  |  |  | 110% |  |
| [trans-(PtCl(NH3)2)2 (-spermine]Cl4 [Example 16] |  | < 0.005 µg/mL |  |  | 172% |
| [trans-(PtCl(NH3)2)2 H2 N--(CH2)6 --NH2 ](NO3)2 [reference compound] | 0.1 µg/mL |  |  |  |  |
